Results taken from EP4483954A1 (Masarykova Univerzita, priority 2023, dated 2025).

Key:
Format in all cases: biochemical
CLK2 (h) = biological target: T1, CLK2 (h) (Homo sapiens, UniProt P49760); test: radiometric kinase assay (KinaseProfiler, Eurofins), CLK2; settings: in vitro radiometric kinase assay, tested at 1 nM to 10 000 nM, no pre-incubation; read-out: inhibitory activities (IC50 values) CLK2
T1 construct: purchased Eurofins (KinaseProfiler)
Method: (§1) The compounds were profiled in the radiometric assays (KinaseProfiler, Eurofins).
(§2) Briefly, kinases were diluted in the buffer shown below prior to addition to the reaction mix: • CDKL3, TAF1L: 20 mM Tris/HCl pH 8.5, 0.2 mM EDTA, 0.1% β-mercaptoethanol, 0.01% Brij-35, 5% glycerol, 1 mg/ml BSA; • Haspin: 15 mM MOPS, 0.75 mM EDTA, 0.0075% Brij-35, 3.75% Glycerol, 150 mM NaCl, 0.1% β-mercaptoethanol, 1 mg/mLBSA; • CDKL4, CLK2, PIM1, TRB2: […], 1 mM EDTA, 0.01% Brij-35, 5% Glycerol, 0.1% β-mercaptoethanol, 1 mg/mL BSA.
(§3) All compounds were prepared to 50x final assay concentration in 100% DMSO. This working stock of the compound was added to the assay well as the first component in the reaction, followed by the remaining components as detailed in the general assay protocols below. There was no pre-incubation step between the compound and the kinase prior to initiation of the reaction.
CLK2 (h) was incubated with 8 mM MOPS pH 7.0, 0.2 mM EDTA, 20 µM […](p)EDEEE (SEQ ID NO. 2), 10 mM magnesium acetate and γ-^33P-ATP (specific activity and concentration as required). The reaction was initiated by the addition of the Mg/ATP mix. After incubation for 40 minutes at room temperature, the reaction was stopped by the addition of phosphoric acid to a concentration of 0.5%. An aliquot of the reaction was then spotted onto a filter and washed four times for 4 minutes in 0.425% phosphoric acid and once in methanol prior to drying and scintillation counting.
(§4) Kinase activity data were expressed as the percent remaining kinase activity in tested samples compared to the vehicle (DMSO) reactions. The compounds were tested at the following concentrations: 1 nM, 3 nM, 10 nM, 30 nM, 100 nM, 300 nM, 1000 nM, 3000 nM, and 10 000 nM; IC50 values and curve fits were then obtained.

CDKL3(h) = biological target: T2, CDKL3(h) (Homo sapiens, UniProt Q8IVW4); test: radiometric kinase assay (KinaseProfiler, Eurofins), CDKL3; settings: in vitro radiometric kinase assay, tested at 1 nM to 10 000 nM, no pre-incubation; read-out: inhibitory activities (IC50 values) CDKL3
T2 construct: purchased Eurofins (KinaseProfiler)
Method: as §1, §2, §3
CDKL3(h) was incubated with 8 mM MOPS pH 7.0, 0.2 mM EDTA, 250 µM RRRFRPASPLRGPPK (SEQ ID NO. 1), 10 mM magnesium acetate and γ-^33P-ATP (specific activity and concentration as required). The reaction was initiated by the addition of the Mg/ATP mix. After incubation for 120 minutes at room temperature, the reaction was stopped by the addition of phosphoric acid to a concentration of 0.5%. An aliquot of the stopped reaction was spotted onto a filter and washed four times for 4 minutes in 0.425% phosphoric acid and once in methanol prior to drying and scintillation counting.
as §4

DYRK2 (h) = biological target: T3, DYRK2 (h) (Homo sapiens, UniProt Q92630); test: radiometric kinase assay (KinaseProfiler, Eurofins), DYRK2; settings: in vitro radiometric kinase assay, tested at 1 nM to 10 000 nM, no pre-incubation; read-out: inhibitory activities (IC50 values) DYRK2
T3 construct: purchased Eurofins (KinaseProfiler)
T3 sequence (Q92630 1-601): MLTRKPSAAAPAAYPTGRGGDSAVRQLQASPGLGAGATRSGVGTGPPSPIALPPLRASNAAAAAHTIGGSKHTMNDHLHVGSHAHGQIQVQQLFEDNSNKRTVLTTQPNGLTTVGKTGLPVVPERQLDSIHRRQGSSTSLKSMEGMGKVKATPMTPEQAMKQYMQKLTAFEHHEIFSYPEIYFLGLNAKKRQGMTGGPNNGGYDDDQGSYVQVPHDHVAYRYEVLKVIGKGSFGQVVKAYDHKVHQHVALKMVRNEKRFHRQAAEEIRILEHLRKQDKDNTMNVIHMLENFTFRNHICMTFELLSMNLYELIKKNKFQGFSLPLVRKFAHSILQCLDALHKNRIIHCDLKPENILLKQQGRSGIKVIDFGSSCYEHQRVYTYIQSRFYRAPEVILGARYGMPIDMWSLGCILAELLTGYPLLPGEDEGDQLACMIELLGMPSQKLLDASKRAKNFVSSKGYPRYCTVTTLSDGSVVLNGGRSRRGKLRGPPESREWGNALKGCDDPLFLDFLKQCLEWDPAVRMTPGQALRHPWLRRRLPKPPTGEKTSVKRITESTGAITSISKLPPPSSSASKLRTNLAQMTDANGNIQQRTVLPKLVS
Method: as §1, §3
DYRK2 (h) was incubated with 8 mM MOPS pH 7.0, 0.2 mM EDTA, 2 mg/mL casein, 10 mM magnesium acetate and γ-^33P-ATP (specific activity and concentration as required). The reaction was initiated by the addition of the Mg/ATP mix. After incubation for 40 minutes at room temperature, the reaction was stopped by the addition of phosphoric acid to a concentration of 0.5%. An aliquot of the reaction was then spotted onto a filter and washed four times for 4 minutes in 0.425% phosphoric acid and once in methanol prior to drying and scintillation counting.
as §4

PIM1 (h) = biological target: T4, PIM1 (h) (Homo sapiens, UniProt P11309); test: radiometric kinase assay (KinaseProfiler, Eurofins), PIM1; settings: in vitro radiometric kinase assay, tested at 1 nM to 10 000 nM, no pre-incubation; read-out: inhibitory activities (IC50 values) PIM1
T4 construct: purchased Eurofins (KinaseProfiler)
Method: as §1, §2, §3
PIM1 (h) was incubated with 8 mM MOPS pH 7.0, 0.2 mM EDTA, 100 µM KKRNRTLTV (SEQ ID NO. 4), 10 mM magnesium acetate and γ-^33P-ATP (specific activity and concentration as required). The reaction was initiated by the addition of the Mg/ATP mix. After incubation for 40 minutes at room temperature, the reaction was stopped by the addition of phosphoric acid to a concentration of 0.5%. An aliquot of the reaction was then spotted onto a filter and washed four times for 4 minutes in 0.425% phosphoric acid and once in methanol prior to drying and scintillation counting.
as §4

T2 sequence (Q8IVW4 whole entry): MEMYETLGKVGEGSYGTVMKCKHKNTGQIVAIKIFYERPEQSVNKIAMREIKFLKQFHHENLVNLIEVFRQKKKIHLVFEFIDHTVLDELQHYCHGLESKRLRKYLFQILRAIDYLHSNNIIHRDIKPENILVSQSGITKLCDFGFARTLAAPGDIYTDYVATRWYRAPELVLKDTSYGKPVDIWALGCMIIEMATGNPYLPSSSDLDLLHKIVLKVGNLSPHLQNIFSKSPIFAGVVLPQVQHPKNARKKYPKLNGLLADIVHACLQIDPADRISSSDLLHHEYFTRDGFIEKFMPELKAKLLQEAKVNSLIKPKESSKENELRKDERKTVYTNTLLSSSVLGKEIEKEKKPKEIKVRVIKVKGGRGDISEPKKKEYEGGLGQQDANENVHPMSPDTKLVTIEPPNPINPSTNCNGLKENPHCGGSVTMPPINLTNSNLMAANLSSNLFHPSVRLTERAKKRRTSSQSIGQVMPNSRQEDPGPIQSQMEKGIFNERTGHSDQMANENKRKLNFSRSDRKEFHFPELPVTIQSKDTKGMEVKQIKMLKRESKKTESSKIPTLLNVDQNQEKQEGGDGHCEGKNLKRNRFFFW
T4 sequence (P11309 whole entry): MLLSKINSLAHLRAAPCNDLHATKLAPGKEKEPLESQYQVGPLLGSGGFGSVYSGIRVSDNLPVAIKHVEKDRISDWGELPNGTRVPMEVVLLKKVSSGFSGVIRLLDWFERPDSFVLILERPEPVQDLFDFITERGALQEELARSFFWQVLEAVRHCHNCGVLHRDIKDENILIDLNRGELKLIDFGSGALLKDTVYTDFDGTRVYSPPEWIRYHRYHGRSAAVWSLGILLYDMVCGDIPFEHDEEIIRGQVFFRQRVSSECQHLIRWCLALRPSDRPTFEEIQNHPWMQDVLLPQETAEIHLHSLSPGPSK
T1 sequence (P49760 whole entry): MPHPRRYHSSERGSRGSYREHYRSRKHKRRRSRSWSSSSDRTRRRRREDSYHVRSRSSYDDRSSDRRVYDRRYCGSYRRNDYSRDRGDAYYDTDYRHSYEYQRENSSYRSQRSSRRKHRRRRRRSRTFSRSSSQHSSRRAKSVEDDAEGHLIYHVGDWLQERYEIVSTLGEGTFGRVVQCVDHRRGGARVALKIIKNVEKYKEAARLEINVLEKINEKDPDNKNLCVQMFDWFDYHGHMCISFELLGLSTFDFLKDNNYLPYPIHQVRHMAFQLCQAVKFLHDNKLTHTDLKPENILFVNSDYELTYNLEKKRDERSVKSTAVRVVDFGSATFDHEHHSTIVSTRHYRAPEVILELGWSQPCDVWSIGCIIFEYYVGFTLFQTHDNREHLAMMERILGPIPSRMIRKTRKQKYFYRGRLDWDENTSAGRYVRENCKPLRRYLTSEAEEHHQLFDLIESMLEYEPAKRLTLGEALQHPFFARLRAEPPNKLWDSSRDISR

| IC50 (CLK2 (h)) [nM] | IC50 (CDKL3(h)) [nM] | IC50 (DYRK2 (h)) [nM] | IC50 (PIM1 (h)) [nM] | Structure (SMILES) |
| --- | --- | --- | --- | --- |
| 500 to 3000 | 100 to 499 | 100 to 499 | 100 to 499 | Cn1cc(-c2ccc3scc(-c4cnn(C)c4)c3n2)cn1 [Preparative Example 63, 3,5-bis(1-methyl-1H-pyrazol-4-yl)thieno[3,2-b]pyridine] |
| 3000 to 10000 | 500 to 3000 | 500 to 3000 | 500 to 3000 | CCn1cc(-c2ccc3scc(-c4ccncc4)c3n2)cn1 [Preparative Example 77, 5-(1-ethyl-1H-pyrazol-4-yl)-3-(pyridin-4-yl)thieno[3,2-b]pyridine] |
| 3000 to 10000 | 100 to 499 | 500 to 3000 | 100 to 499 | Cn1cc(-c2ccc3scc(-c4ccncc4)c3n2)cn1 [Preparative Example 13, 5-(1-methyl-1H-pyrazol-4-yl)-3-(pyridin-4-yl)thieno[3,2-b]pyridine] |
| 3000 to 10000 | 500 to 3000 | 3000 to 10000 | 3000 to 10000 | Cn1cc(-c2ccc3scc(-c4ccncc4)c3n2)c(N)n1 [Preparative Example 84, 1-methyl-4-(3-(pyridin-4-yl)thieno[3,2-b]pyridin-5-yl)-1H-pyrazol-3-amine] |
| 3000 to 10000 | 500 to 3000 | 3000 to 10000 | 3000 to 10000 | Cn1ccc(-c2cc(Cl)c3scc(-c4ccncc4)c3n2)n1 [Preparative Example 163, 7-chloro-5-(1-methyl-1H-pyrazol-3-yl)-3-(pyridin-4-yl)thieno[3,2-b]pyridine] |
| 3000 to 10000 | 3000 to 10000 | 3000 to 10000 | 500 to 3000 | Cn1cc(-c2ccc3scc(-c4ccncc4)c3n2)nn1 [Preparative Example 93, 5-(1-methyl-1H-1,2,3-triazol-4-yl)-3-(pyridin-4-yl)thieno[3,2-b]pyridine] |
| 3000 to 10000 | 500 to 3000 | 500 to 3000 | 100 to 499 | Cc1cc(-c2csc3ccc(-c4cnn(C)c4)nc23)cc(C)n1 [Preparative Example 30, 3-(2,6-dimethylpyridin-4-yl)-5-(1-methyl-1H-pyrazol-4-yl)thieno-[3,2-b]pyridine] |
| 3000 to 10000 | 500 to 3000 | 3000 to 10000 | 3000 to 10000 | Cn1ncc(-c2ccc3scc(-c4ccncc4)c3n2)n1 [Preparative Example 94, 5-(2-methyl-2H-1,2,3-triazol-4-yl)-3-(pyridin-4-yl)thieno[3,2-b]pyridine] |
| 3000 to 10000 | 3000 to 10000 | 3000 to 10000 | 3000 to 10000 | c1ccc(-c2csc3ccc(-c4ccoc4)nc23)cc1 [Preparative Example 123, 5-(furan-3-yl)-3-phenylthieno[3,2-b]pyridine] |
| 500 to 3000 | 100 to 499 | 100 to 499 | 100 to 499 | Cn1cc(-c2ccc3scc(-c4cncs4)c3n2)cn1 [Preparative Example 69, 5-(1-methyl-1H-pyrazol-4-yl)-3-(thiazol-5-yl)thieno[3,2-b]pyridine] |
| 3000 to 10000 | 100 to 499 | 500 to 3000 | 100 to 499 | Cn1cc(-c2ccc3scc(-c4ccnc(F)c4)c3n2)cn1 [Preparative Example 22, 3-(2-fluoropyridin-4-yl)-5-(1-methyl-1H-pyrazol-4-yl)thieno[3,2-b]pyridine] |
| 500 to 3000 | 100 to 499 | 500 to 3000 | 100 to 499 | Cn1cc(-c2ccc3scc(-c4ccncc4F)c3n2)cn1 [Preparative Example 36, 3-(3-fluoropyridin-4-yl)-5-(1-methyl-1H-pyrazol-4-yl)thieno[3,2-b]pyridine] |
| 500 to 3000 | 20 to 99 | 100 to 499 | 100 to 499 | Cn1cc(-c2ccc3scc(-c4ccns4)c3n2)cn1 [Preparative Example 67, 3-(isothiazol-5-yl)-5-(1-methyl-1H-pyrazol-4-yl)thieno[3,2-b]pyridine] |
| 3000 to 10000 | 500 to 3000 | 500 to 3000 | 500 to 3000 | Cn1cc(-c2ccc3scc(-c4ccncc4C#N)c3n2)cn1 [Preparative Example 34, 4-(5-(1-methyl-1H-pyrazol-4-yl)thieno[3,2-b]pyridin-3-yl)nicotino-nitrile] |
| 3000 to 10000 | 500 to 3000 | 3000 to 10000 | 3000 to 10000 | COc1cc(-c2ccn(C)n2)nc2c(-c3ccncc3)csc12 [Preparative Example 165, 7-methoxy-5-(1-methyl-1H-pyrazol-3-yl)-3-(pyridin-4-yl)thieno[3,2-b]pyridine] |
| 3000 to 10000 | 500 to 3000 | 100 to 499 | 100 to 499 | Cn1cc(-c2ccc3scc(-c4ccnc(CN)c4)c3n2)cn1 [Preparative Example 28, (4-(5-(1-methyl-1H-pyrazol-4-yl)thieno[3,2-b]pyridin-3-yl)pyridin-2-yl)methanamine] |
| 500 to 3000 | 500 to 3000 | 3000 to 10000 | 20 to 99 | Cn1ncc(-c2ccc3scc(-c4ccncc4)c3n2)c1CC1CC1 [Preparative Example 82, 5-(5-(cyclopropylmethyl)-1-methyl-1H-pyrazol-4-yl)-3-(pyridin-4-yl)thieno[3,2-b]pyridine] |
| 3000 to 10000 | 100 to 499 | 500 to 3000 | 500 to 3000 | Cn1cc(-c2ccc3scc(-c4ccccc4)c3n2)cn1 [Preparative Example 2, 5-(1-methyl-1H-pyrazol-4-yl)-3-phenylthieno[3,2-b]pyridine] |

| Structure (SMILES) | IC50 (CLK2 (h)) [nM] | IC50 (CDKL3(h)) [nM] | IC50 (DYRK2 (h)) [nM] | IC50 (PIM1 (h)) [nM] |
| --- | --- | --- | --- | --- |
| Cn1cc(-c2ccc3scc(C4=CCNCC4)c3n2)cn1 [Preparative Example 9, 5-(1-methyl-1H-pyrazol-4-yl)-3-(1,2,3,6-tetrahydropyridin-4-yl)-thieno[3.2-b]pyridine] | 3000 to 10000 | 500 to 3000 | 3000 to 10000 | 500 to 3000 |
| Cn1cc(-c2ccc3scc(C(O)c4ccccc4)c3n2)cn1 (centres unmarked) [Preparative Example 74] | 500 to 3000 | 100 to 499 | 3000 to 10000 | 500 to 3000 |
